Assay results from PMC7003846, “Effects of the ventilatory stimulant, doxapram on human TASK‐3 (KCNK9, K2P9.1) channels and TASK‐1 (KCNK3, K2P3.1) channels” (Acta Physiologica (Oxford, England), 2019).
pEC50: −log10 of the molar value.

How the values were obtained:
human TASK-3 = biological target: T1, human TASK-3 (Homo sapiens, UniProt Q9NPC2); experiment: Whole-cell patch clamp on tsA201 cells expressing cloned human TASK-3; format: cell-based
T1 construct: expressed in transfected cells; host or cells: tsA201 (modified HEK293), transient transfection, pcDNA3.1+
T1 sequence (Q9NPC2 whole entry): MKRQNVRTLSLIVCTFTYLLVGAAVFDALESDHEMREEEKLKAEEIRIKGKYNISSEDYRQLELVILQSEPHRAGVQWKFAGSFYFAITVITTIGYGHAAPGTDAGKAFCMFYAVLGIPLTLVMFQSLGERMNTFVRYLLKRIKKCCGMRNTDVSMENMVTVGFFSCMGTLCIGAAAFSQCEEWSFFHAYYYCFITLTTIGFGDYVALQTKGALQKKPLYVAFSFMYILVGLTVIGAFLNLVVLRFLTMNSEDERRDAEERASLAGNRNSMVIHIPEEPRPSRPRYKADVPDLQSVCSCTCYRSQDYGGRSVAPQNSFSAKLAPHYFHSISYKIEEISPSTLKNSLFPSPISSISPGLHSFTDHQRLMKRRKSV
Method: (§1) Murine (mur) wild‐type (WT) TASK‐1 (KCNK3, Genbank^TM DQ185133) and WT murTASK‐3 (KCNK9, Genbank^TM AH009585.2) cDNA were cloned into pCS2^+ vector and were a kind gift from William Wisden (Imperial College, UK). Human WT TASK‐1 (Genbank^TM AF006823.1), WT TASK‐3 (Genbank^TM AF212829) and WT TASK‐2 (KCNK5, Genbank^TM AF084830.1) cDNA’s, were cloned into pcDNA3.1^+ vector (Invitrogen) and were a kind gift from Helen Meadows (GlaxoSmithKline).
(§2) All experiments were performed using a modified human embryonic kidney 293 cell line, tsA201 (ECACC; Sigma‐Aldrich), prepared and maintained as previously described.54
(§3) For the electrophysiological experiments, cells were transiently transfected using a modified calcium phosphate protocol, following a process as previously described.54 Vectors cloned with the gene of interest and a similar vector encoding the cDNA for GFP were added to each well at a concentration of 0.5 µg per well, with the exception being for murTASK‐3, where 0.125 µg per well was used.
(§4) Currents were recorded from tsA201 cells transiently transfected with the channel of interest using whole‐cell patch clamp in a voltage clamp configuration and a step‐ramp voltage protocol as previously described.54 Briefly, all experiments were conducted at room temperature (20‐24°C) using an external solution composed of 145 mM of NaCl, 2.5 mM of KCL, 3 mM of MgCl2, 1 mM of CaCl2 and 10 mM of HEPES (pH 7.4, using NaOH) and an intracellular pipette solution composed of 150 mM of KCL, 3 mM of MgCl2, 5 mM of EGTA and 10 mM of HEPES (pH adjusted to 7.4 with KOH). External solution and modulatory compounds were superfused at a rate of 4‐5 mL min^−1. Currents were recorded using an Axopatch 1D patch clamp amplifier (Molecular Devices), filtered at 0.3 kHz, digitized at 1 kHz.
(§5) For analysis of outward current, we measured the current difference between the −80 and −40 mV. The current‐voltage graphs were obtained from the ramp change in voltage between −120 and +20 mV. For each cell, the current amplitude (pA) was normalized to the cell capacitance (pF). The currents obtained were analysed using pCLAMP 10.2 software (Molecular Devices), Microsoft Excel and GraphPad Prism 6 or 7 software. Data were expressed as the mean ± 95% Confidence Intervals (CI), and n represents the number of individual cells. For EC50 calculations, concentration‐response curves were fitted using the Hill equation. Statistical analysis used were one‐way ANOVA with a post‐hoc Dunnett's test or an unpaired/paired Student's t test. Data were considered statistically different if P < .05. The data and statistical analysis comply with the recommendations on experimental design and analysis in pharmacology.55

TASK-3_L122D = biological target: T2, TASK-3_L122D (Homo sapiens, UniProt Q9NPC2, L122D); experiment: Whole-cell patch clamp, human TASK-3 pore mutant L122D; format: cell-based
T2 construct: expressed in transfected cells; host or cells: tsA201 (modified HEK293), transient transfection
T2 sequence (Q9NPC2 whole entry L122D): as the sequence (Q9NPC2 whole entry) above, with L122D counted along it
Source text: as §1
(§6) Point mutations (L122D, G236D, L239D, V242D or a stop codon) were introduced by site‐directed mutagenesis into TASK‐3 cDNA using the Quikchange kit (Stratagene) as previously described.54 […]
as §4, with “External solution and modulatory compounds were superfused at a rate of 4‐5 mL min^−1.” left out, “kHz. […]” for “kHz.”

murTASK-3 = biological target: T3, murTASK-3 (Mus musculus, UniProt Q3LS21); experiment: Whole-cell patch clamp on tsA201 cells expressing cloned mouse TASK-3; format: cell-based
T3 construct: expressed in transfected cells; host or cells: tsA201 (modified HEK293), transient transfection, pCS2+
T3 sequence (Q3LS21 whole entry): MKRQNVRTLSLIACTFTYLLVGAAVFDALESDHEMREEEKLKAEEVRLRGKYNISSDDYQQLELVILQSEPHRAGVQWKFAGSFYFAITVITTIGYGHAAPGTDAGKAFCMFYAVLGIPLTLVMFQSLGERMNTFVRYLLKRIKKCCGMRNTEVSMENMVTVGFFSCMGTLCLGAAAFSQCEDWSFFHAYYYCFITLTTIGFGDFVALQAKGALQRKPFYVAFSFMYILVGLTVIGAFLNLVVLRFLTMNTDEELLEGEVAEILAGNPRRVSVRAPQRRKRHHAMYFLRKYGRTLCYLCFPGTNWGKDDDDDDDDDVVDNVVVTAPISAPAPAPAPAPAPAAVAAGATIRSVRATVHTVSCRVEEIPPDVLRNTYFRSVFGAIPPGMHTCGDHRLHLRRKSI
Method: as §1, §2, §3, §4, §5

hTASK-3_Δ250 = biological target: T4, hTASK-3_Δ250 (Homo sapiens, UniProt Q9NPC2); experiment: Whole-cell patch clamp, C-terminally truncated human TASK-3; format: cell-based
T4 construct: truncating the channel to remove the C‐terminal of the human TASK‐3 channel (hTASK‐3_Δ250); expressed in transfected cells; host or cells: tsA201 (modified HEK293), transient transfection
T4 sequence (Q9NPC2 1-249 limits assumed, stated change not applied): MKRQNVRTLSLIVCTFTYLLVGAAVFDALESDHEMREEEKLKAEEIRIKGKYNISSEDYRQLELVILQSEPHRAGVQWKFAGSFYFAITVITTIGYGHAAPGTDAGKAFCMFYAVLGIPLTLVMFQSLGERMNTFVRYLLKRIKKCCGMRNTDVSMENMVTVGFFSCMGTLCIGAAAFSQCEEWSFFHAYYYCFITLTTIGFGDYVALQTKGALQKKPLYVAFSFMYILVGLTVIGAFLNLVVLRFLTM
Source text: as §1, §6
as §4, with “External solution and modulatory compounds were superfused at a rate of 4‐5 mL min^−1.” left out, “kHz. […]” for “kHz.”

TASK-3_G236D = biological target: T5, TASK-3_G236D (Homo sapiens, UniProt Q9NPC2, G236D); experiment: Whole-cell patch clamp, human TASK-3 pore mutant G236D; format: cell-based; details: 10 µM (Figure 6C); read-out: percentage inhibition of TASK-3_G236D
T5 construct: expressed in transfected cells; host or cells: tsA201 (modified HEK293), transient transfection
T5 sequence (Q9NPC2 whole entry G236D): as the sequence (Q9NPC2 whole entry) above, with G236D counted along it
Source text: as §1, §6
as §4, with “External solution and modulatory compounds were superfused at a rate of 4‐5 mL min^−1.” left out, “kHz. […]” for “kHz.”

[1] = test system: rat TASK-1 homodimeric channels; details: cited from earlier work
[2] = test system: rat TASK-1/TASK-3 heterodimeric channels; details: cloned rat channels; cited from earlier work
murTASK-1 = biological target: T6, murTASK-1 (Mus musculus, UniProt O35111); experiment: Whole-cell patch clamp on tsA201 cells expressing cloned mouse TASK-1; format: cell-based
T6 construct: expressed in transfected cells; host or cells: tsA201 (modified HEK293), transient transfection, pCS2+
T6 sequence (O35111 whole entry): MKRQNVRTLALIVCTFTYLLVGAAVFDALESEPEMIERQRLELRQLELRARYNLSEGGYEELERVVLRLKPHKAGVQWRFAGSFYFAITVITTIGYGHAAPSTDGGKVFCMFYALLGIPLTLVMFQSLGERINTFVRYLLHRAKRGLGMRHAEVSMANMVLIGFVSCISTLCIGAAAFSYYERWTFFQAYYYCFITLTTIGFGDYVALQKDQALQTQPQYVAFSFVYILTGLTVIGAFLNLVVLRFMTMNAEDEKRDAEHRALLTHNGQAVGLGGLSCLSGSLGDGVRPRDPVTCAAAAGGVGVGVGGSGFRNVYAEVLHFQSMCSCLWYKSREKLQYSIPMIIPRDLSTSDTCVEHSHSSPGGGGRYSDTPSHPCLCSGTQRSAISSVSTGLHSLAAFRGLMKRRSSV
Method: as §1, §2, §3, §4, §5

[3] = biological target: T7, murTASK-1/murTASK-3 heterodimer channels (Mus musculus, UniProt O35111+Q3LS21); experiment: Whole-cell patch clamp, forced heterodimer murTASK-1/murTASK-3; format: cell-based
T7 construct: expressed in transfected cells; host or cells: tsA201 (modified HEK293), transient transfection
T7 sequence (O35111 whole entry): as above
T7 sequence (Q3LS21 whole entry): as the sequence (Q3LS21 whole entry) above
Method: as §1
(§7) All experiments were performed using a modified human embryonic kidney 293 cell line, tsA201 (ECACC; Sigma‐Aldrich), prepared and maintained as previously described.54 […]
as §4, with “External solution and modulatory compounds were superfused at a rate of 4‐5 mL min^−1.” left out
(§8) For analysis of outward current, we measured the current difference between the −80 and −40 mV. […]

human TASK-1 = biological target: T8, human TASK-1 (Homo sapiens, UniProt O14649); experiment: Whole-cell patch clamp on tsA201 cells expressing cloned human TASK-1; format: cell-based
T8 construct: expressed in transfected cells; host or cells: tsA201 (modified HEK293), transient transfection, pcDNA3.1+
T8 sequence (O14649 whole entry): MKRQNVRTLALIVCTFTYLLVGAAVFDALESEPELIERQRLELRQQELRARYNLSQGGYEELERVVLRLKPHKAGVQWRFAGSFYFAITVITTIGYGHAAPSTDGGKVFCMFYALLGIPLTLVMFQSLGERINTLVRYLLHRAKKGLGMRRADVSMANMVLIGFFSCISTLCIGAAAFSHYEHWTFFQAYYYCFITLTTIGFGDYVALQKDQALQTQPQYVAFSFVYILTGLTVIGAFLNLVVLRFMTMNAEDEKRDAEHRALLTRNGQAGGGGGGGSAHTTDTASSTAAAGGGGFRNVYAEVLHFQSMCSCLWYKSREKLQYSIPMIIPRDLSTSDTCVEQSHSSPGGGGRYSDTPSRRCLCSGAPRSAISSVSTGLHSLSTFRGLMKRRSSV
Method: as §1, §2, §3, §4, §5

TASK-3_L239D = biological target: T9, TASK-3_L239D (Homo sapiens, UniProt Q9NPC2, L239D); experiment: Whole-cell patch clamp, human TASK-3 pore mutant L239D; format: cell-based; details: 10 µM (Figure 6C); read-out: percentage inhibition of TASK-3_L239D
T9 construct: expressed in transfected cells; host or cells: tsA201 (modified HEK293), transient transfection
T9 sequence (Q9NPC2 1-374 L239D): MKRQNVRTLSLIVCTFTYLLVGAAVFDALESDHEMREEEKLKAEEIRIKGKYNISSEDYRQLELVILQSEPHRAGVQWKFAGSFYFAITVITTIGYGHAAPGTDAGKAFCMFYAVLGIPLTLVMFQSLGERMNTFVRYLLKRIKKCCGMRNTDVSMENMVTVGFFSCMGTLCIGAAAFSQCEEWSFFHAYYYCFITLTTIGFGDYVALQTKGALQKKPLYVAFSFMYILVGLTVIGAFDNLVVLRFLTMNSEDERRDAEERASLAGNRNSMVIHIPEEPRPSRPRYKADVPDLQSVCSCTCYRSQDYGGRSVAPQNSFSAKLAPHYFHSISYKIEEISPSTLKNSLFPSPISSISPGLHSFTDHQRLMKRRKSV
Source text: as §1, §6
as §4, with “External solution and modulatory compounds were superfused at a rate of 4‐5 mL min^−1.” left out, “kHz. […]” for “kHz.”

murT3_Δ250 = biological target: T10, murT3_Δ250 (Mus musculus, UniProt Q3LS21); experiment: Whole-cell patch clamp, C-terminally truncated mouse TASK-3; format: cell-based
T10 construct: Removal of the carboxy terminal of murTASK‐3 (murT3) attenuates doxapram effect further; expressed in transfected cells; host or cells: tsA201 (modified HEK293), transient transfection
T10 sequence (Q3LS21 1-249 limits assumed, stated change not applied): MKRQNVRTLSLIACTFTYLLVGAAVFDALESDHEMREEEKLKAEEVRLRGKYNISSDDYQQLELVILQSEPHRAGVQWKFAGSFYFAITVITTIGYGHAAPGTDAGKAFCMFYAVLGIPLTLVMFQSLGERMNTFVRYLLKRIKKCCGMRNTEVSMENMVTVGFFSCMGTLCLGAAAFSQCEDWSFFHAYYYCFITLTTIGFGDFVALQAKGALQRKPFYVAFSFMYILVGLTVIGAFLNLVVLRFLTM
Source text: as §1, §6
as §4, with “External solution and modulatory compounds were superfused at a rate of 4‐5 mL min^−1.” left out, “kHz. […]” for “kHz.”

[4] = test system: rat TASK-3 homodimeric channels; details: cloned rat channels; cited from earlier work
TASK-3_V242D = biological target: T11, TASK-3_V242D (Homo sapiens, UniProt Q9NPC2, V242D); experiment: Whole-cell patch clamp, human TASK-3 pore mutant V242D; format: cell-based; details: 10 µM (Figure 6C); read-out: percentage inhibition of TASK-3_V242D
T11 construct: expressed in transfected cells; host or cells: tsA201 (modified HEK293), transient transfection
T11 sequence (Q9NPC2 whole entry V242D): as the sequence (Q9NPC2 whole entry) above, with V242D counted along it
Source text: as §1, §6
as §4, with “External solution and modulatory compounds were superfused at a rate of 4‐5 mL min^−1.” left out, “kHz. […]” for “kHz.”

[5] = biological target: T12, murTASK-3/murTASK-1 heterodimer channels (Mus musculus, UniProt O35111+Q3LS21); experiment: Whole-cell patch clamp, forced heterodimer murTASK-3/murTASK-1; format: cell-based
T12 construct: expressed in transfected cells; host or cells: tsA201 (modified HEK293), transient transfection
T12 sequence (Q3LS21 whole entry): as the sequence (Q3LS21 whole entry) above
T12 sequence (O35111 whole entry): as the sequence (O35111 whole entry) above
Method: as §1, §7
as §4, with “External solution and modulatory compounds were superfused at a rate of 4‐5 mL min^−1.” left out
as §8

human TASK-2 = biological target: T13, human TASK-2 (Homo sapiens, UniProt O95279); experiment: Whole-cell patch clamp on tsA201 cells expressing cloned human TASK-2; format: cell-based; details: acute application, read-out: inhibition of WT TASK-2 current
T13 construct: expressed in transfected cells; host or cells: tsA201 (modified HEK293), transient transfection, pcDNA3.1+
T13 sequence (O95279 1-499): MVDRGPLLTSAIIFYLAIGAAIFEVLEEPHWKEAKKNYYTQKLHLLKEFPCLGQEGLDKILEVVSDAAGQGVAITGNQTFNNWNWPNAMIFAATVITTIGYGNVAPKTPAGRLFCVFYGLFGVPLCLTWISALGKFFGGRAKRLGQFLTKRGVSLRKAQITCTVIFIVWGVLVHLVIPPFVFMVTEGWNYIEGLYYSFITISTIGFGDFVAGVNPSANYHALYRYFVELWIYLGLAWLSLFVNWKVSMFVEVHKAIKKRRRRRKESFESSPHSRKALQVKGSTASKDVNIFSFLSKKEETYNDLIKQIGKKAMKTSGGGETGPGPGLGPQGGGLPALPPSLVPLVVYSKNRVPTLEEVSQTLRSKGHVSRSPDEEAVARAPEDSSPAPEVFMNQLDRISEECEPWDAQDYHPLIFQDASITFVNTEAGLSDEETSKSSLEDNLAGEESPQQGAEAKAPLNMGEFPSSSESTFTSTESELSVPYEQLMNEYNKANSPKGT
Method: as §1, §7
as §4, with “External solution and modulatory compounds were superfused at a rate of 4‐5 mL min^−1.” left out
as §8

[6] = concentration-response 0.3-100 µM

[Cl-].[Cl-].[Zn+2] [zinc, Zinc Chloride]
inhibition of human TASK-3 current (human TASK-3; 100 µM, acute application, WT): 94% | inhibition of TASK-3_L122D (TASK-3_L122D; 100 µM): 87%

CCN1CC(CCN2CCOCC2)C(c2ccccc2)(c2ccccc2)C1=O (stereo not shown) [doxapram, 1‐ethyl‐4‐(2‐morpholinoethyl)‐3,3‐diphenyl‐2‐pyrrolidinone]
pEC50 (murTASK-3; estimated, read-out: 50% effective concentration, murTASK-3): ≤ 4.00 | inhibition at 10 µM (murTASK-3; tsA201, 10 µM, acute application, read-out: current inhibition of murTASK-3): 21% | inhibition at 100 µM (murTASK-3; tsA201, 100 µM, acute application, read-out: current inhibition of murTASK-3): 56% | inhibition at 10 µM (hTASK-3_Δ250): 19% | inhibition at 10 µM (TASK-3_G236D): 26% | inhibition of human TASK-3 current (human TASK-3; 10 µM, acute application, WT): 62% | recovery from inhibition of TASK-3 (human TASK-3; 10 µM, washout): faster and more complete | Hill slope, human TASK-3 (human TASK-3; [6]): 0.8 | inhibition at 10 µM (human TASK-3; tsA201, 10 µM, acute application, WT, read-out: inhibition of human TASK-3 current): 68% | pEC50 (human TASK-3; tsA201 cells, whole-cell patch clamp, room temperature, read-out: EC50, inhibition of human TASK-3 current): 5.60 | pEC50 ([1]; cloned rat channels): 6.39 | fold more potent on TASK-1 or heteromultimers of TASK-1 and TASK-3 than on TASK-3 ([1]; rat channels): 90 fold | pEC50 [2]: 5.05 | pEC50 (murTASK-1; calculated from concentration-response curve, read-out: 50% effective concentration, murTASK-1): 5.82 | inhibition at 1 µM (murTASK-1; tsA201, 1 µM, acute application, read-out: current inhibition of murTASK-1): 28% | inhibition at 3 µM (murTASK-1; tsA201, 3 µM, acute application, read-out: current inhibition of murTASK-1): 43% | inhibition at 10 µM (murTASK-1; tsA201, 10 µM, acute application, read-out: current inhibition of murTASK-1): 58% | inhibition at 10 µM [3]: 58% | inhibition at 10 µM (TASK-3_L122D; 10 µM (Figure 6C), read-out: percentage inhibition of TASK-3_L122D): 6% | recovery from inhibition of TASK-1 (human TASK-1; 10 µM, washout): slow and mostly incomplete | Hill slope, human TASK-1 (human TASK-1; [6]): 0.8 | inhibition at 10 µM (human TASK-1; tsA201, 10 µM, acute application, read-out: inhibition of human TASK-1 current): 55% | pEC50 (human TASK-1; tsA201 cells, whole-cell patch clamp, room temperature, read-out: EC50, inhibition of human TASK-1 current): 5.40 | inhibition at 10 µM (TASK-3_L239D): 13% | inhibition at 10 µM (murT3_Δ250): 4% | pEC50 [4]: 4.43 | inhibition at 10 µM (TASK-3_V242D): 27% | inhibition at 10 µM [5]: 42% | inhibition at 10 µM (human TASK-2): 7%
